For 18 compounds, MIC results are on record in patent US20090156577A1, “7-AMINO ALKYLIDENYL-HETEROCYCLIC QUINOLONES AND NAPHTHYRIDONES” (priority 2004, published 2009).

The structures appear in SMILES notation. In brackets after ≈: the same amount, converted by molar mass. Read-outs that look alike come from different tables or passages of the source. Some results are limits rather than exact numbers.

The test system of the test is pathogenic bacteria. In words: MIC by microdilution broth method (NCCLS M7-A4), in vitro antibacterial activity. The test is classed as cell-based. The essentials: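 Broth microdilution per NCCLS M7-A4: two-fold serial dilutions in cation-adjusted Mueller-Hinton broth, inoculum about 5×10^4 CFU/well. Trays incubated 16–20 h at 35 °C. MIC read by comparing growth against no-compound growth controls.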
(In broth dilution the organism is exposed to a series of concentrations in liquid medium.)

Setting [1] is: Staphylococcus aureus, Organism A: Staphylococcus aureus OC4172, read-out: MIC.
Setting [2] is: Streptococcus pneumoniae, ATCC49619, Organism E: Streptococcus pneumoniae ATCC 49619, read-out: MIC.
Where [3] appears, read: Streptococcus pneumoniae, Organism B: fluoroquinolone-resistant clinical isolate of Streptococcus pneumoniae (QRDR amino acid substitutions).
[4] abbreviates: Streptococcus pneumoniae, Organism C: fluoroquinolone-resistant clinical isolate of Streptococcus pneumoniae (QRDR amino acid substitutions).
The mark [5] stands for this setting: Streptococcus pneumoniae, Organism D: fluoroquinolone-resistant clinical isolate of Streptococcus pneumoniae (QRDR amino acid substitutions).

Broadly, the MIC is the lowest concentration that inhibits growth of the organism. In the case of `NC/C(Cl)=C1/CCCN(c2c(F)cc3c(=O)c(C(=O)O)cn(-c4nc(N)c(F)cc4F)c3c2Cl)C1` [Compound 412, (E)-1-(6-Amino-3,5-difluoro-pyridin-2-yl)-7-[3-(2-amino-1-chloro-ethylidene)-piperidin-1-yl]8-chloro-6-fluoro-4-oxo-1,4-dihydro-quinoline-3-carboxylic acid], the MIC by setting is: under setting [1], 0.12 µg/mL (≈ 0.227 µM); under setting [2], 1 µg/mL (≈ 1.89 µM); under setting [3], 16 µg/mL (≈ 30.3 µM); under setting [4], more than 16 µg/mL; under setting [5], 8 µg/mL (≈ 15.1 µM).

Regarding `NC/C=C1/CCCN(c2c(F)cc3c(=O)c(C(=O)O)cn(-c4nc(N)c(F)cc4F)c3c2Cl)C1` [Compound 413, (Z)-1-(6-Amino-3,5-difluoro-pyridin-2-yl)-7-[3-(2-amino-ethylidene)-piperidin-1-yl]8-chloro-6-fluoro-4-oxo-1,4-dihydro-quinoline-3-carboxylic acid], the MIC reads like this: under setting [1], 0.25 µg/mL (≈ 0.506 µM); under setting [2], 2 µg/mL (≈ 4.05 µM); under setting [3], 16 µg/mL (≈ 32.4 µM); under setting [4], more than 16 µg/mL; under setting [5], more than 16 µg/mL.

As to `NC/C=C1\CCCN(c2c(F)cc3c(=O)c(C(=O)O)cn(-c4nc(N)c(F)cc4F)c3c2Cl)C1` [Compound 414, (E)-1-(6-Amino-3,5-difluoro-pyridin-2-yl)-7-[3-(2-amino-ethylidene)-piperidin-1-yl]8-chloro-6-fluoro-4-oxo-1,4-dihydro-quinoline-3-carboxylic acid], the MIC is 0.25 µg/mL (≈ 0.506 µM) under setting [1], 2 µg/mL (≈ 4.05 µM) under setting [2], more than 16 µg/mL under setting [4] and more than 16 µg/mL under setting [5].

On to `Nc1nc(-n2cc(C(=O)O)c(=O)c3cc(F)c(N4CCC/C(=C(\F)CO)C4)c(Cl)c32)c(F)cc1F` [Compound 415, (E)-1-(6-Amino-3,5-difluoro-pyridin-2-yl)-8-chloro-6-fluoro-7-[3-(1-fluoro-2-hydroxy-ethylidene)-piperidin-1-yl]-4-oxo-1,4-dihydro-quinoline-3-carboxylic acid], for which the MIC was 0.12 µg/mL (≈ 0.234 µM) under setting [1], 4 µg/mL (≈ 7.8 µM) under setting [2], more than 16 µg/mL under setting [4] and more than 16 µg/mL under setting [5].

On to `Nc1nc(-n2cc(C(=O)O)c(=O)c3cc(F)c(N4CCC/C(=C(/Cl)CO)C4)c(Cl)c32)c(F)cc1F` [Compound 416, (Z)-1-(6-Amino-3,5-difluoro-pyridin-2-yl)-8-chloro-7-[3-(1-chloro-2-hydroxy-ethylidene)-piperidin-1-yl]-6-fluoro-4-oxo-1,4-dihydro-quinoline-3-carboxylic acid], for which the MIC runs as follows: under setting [1], 0.06 µg/mL (≈ 0.113 µM); under setting [2], 1 µg/mL (≈ 1.89 µM); under setting [3], 16 µg/mL (≈ 30.2 µM); under setting [4], more than 16 µg/mL; under setting [5], 16 µg/mL (≈ 30.2 µM).

Regarding `Nc1nc(-n2cc(C(=O)O)c(=O)c3cc(F)c(N4CCC(=C(F)CO)CC4)c(Cl)c32)c(F)cc1F` [Compound 417, 1-(6-Amino-3,5-difluoro-pyridin-2-yl)-8-chloro-6-fluoro-7-[4-(1-fluoro-2-hydroxy-ethylidene)-piperidin-1-yl]-4-oxo-1,4-dihydro-quinoline-3-carboxylic acid], the MIC is, setting by setting: under setting [1], 0.03 µg/mL (≈ 0.0585 µM); under setting [2], 0.5 µg/mL (≈ 0.975 µM); under setting [3], 8 µg/mL (≈ 15.6 µM); under setting [4], more than 16 µg/mL; under setting [5], 4 µg/mL (≈ 7.8 µM).

As for `CNCC(F)=C1CN(c2c(F)cc3c(=O)c(C(=O)O)cn(-c4nc(N)c(F)cc4F)c3c2Cl)C1` [Compound 418, 1-(6-Amino-3,5-difluoro-pyridin-2-yl)-8-chloro-6-fluoro-7-[3-(1-fluoro-2-methylamino-ethylidene)-azetidin-1-yl]-4-oxo-1,4-dihydro-quinoline-3-carboxylic acid], the MIC by setting is: under setting [1], 0.06 µg/mL (≈ 0.121 µM); under setting [2], 1 µg/mL (≈ 2.01 µM); under setting [3], 16 µg/mL (≈ 32.1 µM); under setting [4], more than 16 µg/mL; under setting [5], 16 µg/mL (≈ 32.1 µM).

With `Nc1nc(-n2cc(C(=O)O)c(=O)c3cc(F)c(N4CC(=C(F)CO)C4)c(Cl)c32)c(F)cc1F` [Compound 419, 1-(6-Amino-3,5-difluoro-pyridin-2-yl)-8-chloro-6-fluoro-7-[3-(1-fluoro-2-hydroxy-ethylidene)-azetidin-1-yl]-4-oxo-1,4-dihydro-quinoline-3-carboxylic acid], the MIC is not above 0.015 µg/mL under setting [1]; not above 0.015 µg/mL under setting [2]; 0.03 µg/mL (≈ 0.0619 µM) under setting [3]; 0.25 µg/mL (≈ 0.516 µM) under setting [4]; 0.06 µg/mL (≈ 0.124 µM) under setting [5].

With `NCC=C1CN(c2c(F)cc3c(=O)c(C(=O)O)cn(-c4nc(N)c(F)cc4F)c3c2Cl)C1` [Compound 420, 1-(6-Amino-3,5-difluoro-pyridin-2-yl)-7-[3-(2-amino-ethylidene)-azetidin-1-yl]-8-chloro-6-fluoro-4-oxo-1,4-dihydro-quinoline-3-carboxylic acid], the MIC by setting is: under setting [1], not above 0.015 µg/mL; under setting [2], 0.12 µg/mL (≈ 0.258 µM); under setting [4], 1 µg/mL (≈ 2.15 µM); under setting [5], 0.5 µg/mL (≈ 1.07 µM).

For the compound `CC(CN)=C1CN(c2c(F)cc3c(=O)c(C(=O)O)cn(-c4nc(N)c(F)cc4F)c3c2Cl)C1` [Compound 421, 1-(6-Amino-3,5-difluoro-pyridin-2-yl)-7-[3-(2-amino-1-methyl-ethylidene)-azetidin-1-yl]-8-chloro-6-fluoro-4-oxo-1,4-dihydro-quinoline-3-carboxylic acid], the MIC under setting [1] amounted to 0.06 µg/mL (≈ 0.125 µM), the MIC under setting [2] stood at 0.25 µg/mL (≈ 0.521 µM), 2 µg/mL (≈ 4.17 µM) was the least that counted as inhibitory under setting [4] (MIC) and it took 1 µg/mL (≈ 2.08 µM) to inhibit growth under setting [5] (MIC).

Take `C/C(CN)=C1\CCCN(c2c(F)cc3c(=O)c(C(=O)O)cn(-c4nc(N)c(F)cc4F)c3c2Cl)C1` [Compound 422, (Z)-1-(6-Amino-3,5-difluoro-pyridin-2-yl)-7-[3-(2-amino-1-methyl-ethylidene)-piperidin-1-yl]-8-chloro-6-fluoro-4-oxo-1,4-dihydro-quinoline-3-carboxylic acid]: the MIC runs as follows: under setting [1], 0.12 µg/mL (≈ 0.236 µM); under setting [2], 1 µg/mL (≈ 1.97 µM); under setting [3], more than 16 µg/mL; under setting [4], more than 16 µg/mL; under setting [5], more than 16 µg/mL.

With `C/C(CN)=C1/CCCN(c2c(F)cc3c(=O)c(C(=O)O)cn(-c4nc(N)c(F)cc4F)c3c2Cl)C1` [Compound 423, (E)-1-(6-Amino-3,5-difluoro-pyridin-2-yl)-7-[3-(2-amino-1-methyl-ethylidene)-piperidin-1-yl]-8-chloro-6-fluoro-4-oxo-1,4-dihydro-quinoline-3-carboxylic acid], the MIC runs as follows: under setting [1], 0.25 µg/mL (≈ 0.492 µM); under setting [2], 4 µg/mL (≈ 7.88 µM); under setting [3], more than 16 µg/mL; under setting [4], more than 16 µg/mL; under setting [5], more than 16 µg/mL.

Turning to `Cc1c(F)c(N2CCC/C(=C(\F)CN)C2)cc2c1c(=O)c(C(=O)O)cn2C1CC1` [Compound 424, (E)-7-[3-(2-Amino-1-fluoro-ethylidene)-piperidin-1-yl]-1-cyclopropyl-6-fluoro-5-methyl-4-oxo-1,4-dihydro-quinoline-3-carboxylic acid], the MIC under setting [1] was not above 0.015 µg/mL; the MIC under setting [2] is not above 1 µg/mL; the MIC under setting [3] worked out at 0.06 µg/mL (≈ 0.149 µM); inhibition of growth under setting [4] (MIC) required 0.5 µg/mL (≈ 1.24 µM); the MIC under setting [5] was not above 1 µg/mL.

Consider `Cc1c(F)c(N2CCC/C(=C(/F)CN)C2)cc2c1c(=O)c(C(=O)O)cn2C1CC1` [Compound 425, (Z)-7-[3-(2-Amino-1-fluoro-ethylidene)-piperidin-1-yl]-1-cyclopropyl-6-fluoro-5-methyl-4-oxo-1,4-dihydro-quinoline-3-carboxylic acid], for which the MIC was 0.06 µg/mL (≈ 0.149 µM) under setting [1]; 1 µg/mL (≈ 2.48 µM) under setting [2]; 4 µg/mL (≈ 9.92 µM) under setting [3]; 16 µg/mL (≈ 39.7 µM) under setting [4]; 8 µg/mL (≈ 19.8 µM) under setting [5].

With `Cc1c(F)c(N2CCC/C(=C(\Cl)CN)C2)cc2c1c(=O)c(C(=O)O)cn2C1CC1` [Compound 426, (E)-7-[3-(2-Amino-1-chloro-ethylidene)-piperidin-1-yl]-1-cyclopropyl-6-fluoro-5-methyl-4-oxo-1,4-dihydro-quinoline-3-carboxylic acid], the MIC reads like this: under setting [1], not above 0.015 µg/mL; under setting [2], 0.06 µg/mL (≈ 0.143 µM); under setting [3], not above 0.5 µg/mL; under setting [4], 1 µg/mL (≈ 2.38 µM); under setting [5], 0.25 µg/mL (≈ 0.595 µM).

In the case of `Cc1c(F)c(N2CCC/C(=C/CN)C2)cc2c1c(=O)c(C(=O)O)cn2C1CC1` [Compound 427, (Z)-7-[3-(2-Amino-ethylidene)-piperidin-1-yl]-1-cyclopropyl-6-fluoro-5-methyl-4-oxo-1,4-dihydro-quinoline-3-carboxylic acid], the MIC reads like this: under setting [1], not above 0.015 µg/mL; under setting [2], 0.12 µg/mL (≈ 0.311 µM); under setting [3], 2 µg/mL (≈ 5.19 µM); under setting [4], 4 µg/mL (≈ 10.4 µM); under setting [5], 1 µg/mL (≈ 2.59 µM).

On to `CNC/C(Cl)=C1/CCCN(c2cc3c(cc2F)c(=O)c(C(=O)O)cn3C2CC2)C1.Cl` [Compound 428, (E)-7-[3-(1-Chloro-2-methylamino-ethylidene)-piperidin-1-yl]-1-cyclopropyl-6-fluoro-4-oxo-1,4-dihydroquinoline-3-carboxylic Acid Hydrochloride Salt], for which the MIC was 0.25 µg/mL under setting [1]; 1 µg/mL under setting [2]; more than 16 µg/mL under setting [3]; more than 16 µg/mL under setting [4]; more than 16 µg/mL under setting [5].

Take `CNCC(F)=C1CN(c2cc3c(cc2F)c(=O)c(C(=O)O)cn3C2CC2)C1.O=C(O)C(F)(F)F` [Compound 430, 1-Cyclopropyl-6-fluoro-7-[3-(1-fluoro-2-methylamino-ethylidene)-azetidin-1-yl]-4-oxo-1,4-dihydro-quinoline-3-carboxylic acid trifluoroacetic acid salt]: the MIC was determined as 0.12 µg/mL under setting [1]; 0.5 µg/mL under setting [2]; 8 µg/mL under setting [3]; 2 µg/mL under setting [4]; 4 µg/mL under setting [5].
